Measurements published in patent US8383852B2, “Compounds having a cyclic moiety and compositions for delivering active agents” (Emisphere Technologies, Inc., priority 2007, dated 2013).

Tested on: male, Sprague-Dawley rats
Assay: Oral delivery of insulin in rats: change in whole blood glucose after insulin plus delivery agent
Assay type: in vivo, rat
Details: oral gavage
Experimental: Human recombinant insulin (ICN Biomedicals, Aurora, Ohio) was dissolved in deionized water (ph ˜6.5) to obtain stock insulin solutions having a concentration of 15 mg/ml. 3-[4-(cyclopropylmethoxy)phenyl]propanoic acid (Emisphere Technologies, Tarrytown, N.Y.) was dissolved in deionized water to obtain a 200 mg/ml delivery agent solution. The free acid form of delivery agent as converted to the sodium salt by adding one equivalent of sodium hydroxide. Solutions were vortexted, sonicated, and heated. If necessary, additional sodium hydroxide was added in μl quantities to achieve uniform solubility in the delivery agent solutions. Solutions were adjusted to a pH of 3.5-8.5 by the addition of either hydrochloric acid or sodium hydroxide, as appropriate. The insulin stock solution was then added to the delivery agent solutions to obtain an administration solution ultimately having an insulin concentration of 0.5 mg/ml. After solubilization and drug addition, administration solutions were brought to a final volume by the addition of deionized water.
Insulin was administered to male, Sprague-Dawley rats either alone or in combination with delivery agent by oral gavage (PO). Typically, rats were fasted for 18-24 hours prior to dosing. A Rusch 8 French catheter was cut to 11 cm in length and adapted to fit a 1 ml syringe. The syringe was filled with dosing solution and the catheter was inserted into the rat mouth and fed down the esophagus (10.0 cm). The dosing solution was delivered by pressing the syringe plunger while holding the rat in an upright position. The doses of delivery agent and
[…] The dose volume was 1 ml/kg. The weight of the rats in this invention ranges from 250 to 300 grams. The rat was weighted prior to the test and the dose volume was adjusted accordingly.
Immediate to each blood sampling point, rats were exposed briefly (˜10 seconds) to carbon dioxide until prostrate. A 77-mm capillary tube was inserted into the retroorbital sinus. Typically, blood samples were collected prior to dosing (time=0) and at 15, 30, 45, and 60 minutes after dosing.
To determine the pharmacodynamic response, a hand-held glucometer (OneTouch Ultra, LifeScan—Johnson & Johnson, New Brunswick, N.J.) was used to measure whole blood glucose after administration of insulin or insulin and delivery agent. After discarding the first drop of blood, a small sample (˜5-10 μls) was touched to the glucometer test strip (OneTouch Ultra, LifeScan) and a blood glucose reading was generated by the meter. Typically, samples were collected prior to dosing (time 0) and at 15, 30, 45, and 60 minutes after dosing.

[1] = 15 min., insulin/delivery agent = 0.5 mg/200 mg per kg
[2] = 30 min., insulin/delivery agent = 0.5 mg/200 mg per kg
[3] = 45 min., insulin/delivery agent = 0.5 mg/200 mg per kg
[4] = 60 min., insulin/delivery agent = 0.5 mg/200 mg per kg
[5] = time 0, insulin/delivery agent = 0.5 mg/200 mg per kg

| Compound | Percent change in whole blood glucose from baseline (negative = reduction) [1] | Percent change in whole blood glucose from baseline (negative = reduction) [2] | Percent change in whole blood glucose from baseline (negative = reduction) [3] | Percent change in whole blood glucose from baseline (negative = reduction) [4] | Percent change in whole blood glucose from baseline (negative = reduction) [5] |
| --- | --- | --- | --- | --- | --- |
| O=C(O)CCc1ccc(OCC2CC2)cc1 [Compound 1, 3-[4-(cyclopropylmethoxy)phenyl]propanoic acid] | −17.26% | −38.35% | −43.75% | −42.48% | −4.64% |
| O=C(O)c1ccc(OCC2CCC2)cc1 [Compound 2, 4-(cyclobutylmethoxy)benzoic acid] | −20.04% | −32.2% | −32.51% | −19.95% | 7.51% |
| COc1cc(CC(=O)O)ccc1OCC1CCC1 [Compound 3, [4-(cyclobutylmethoxy)-3-methoxyphenyl]acetic acid] | −15.04% | −22.90% | −21.04% | −19.74% | 6.88% |
| O=C(O)c1ccc(OCC2CC2)cc1 [Compound 4, 4-(cyclopropylmethoxy)benzoic acid] | −11.80% | −32.15% | −21.14% | −16.78% | 1.72% |
| O=C(O)Cc1ccc(OCC2CC2)cc1 [Compound 5, [4-(cyclopropylmethoxy)phenyl]acetic acid] | −17.53% | −26.944% | −22.92% | −18.62% | −1.91% |
| O=C(O)c1ccccc1OCC1CCC1 [Compound 6, 2-(cyclobutylmethoxy)benzoic acid] | −9.25% | −20.51% | −2.61% | −2.75% | 6.37% |
| COc1cc(CC(=O)O)ccc1OC1CCCC1 [Compound 7, [4-(cyclopentyloxy)-3-methoxyphenyl]acetic acid] | −7.15% | −17.37% | −12.75% | −12.77% | 11.87% |
| COc1cc(CC(=O)O)ccc1OCC1CC1 [Compound 8, [4-(cyclopropylmethoxy)-3-methoxyphenyl]acetic acid] | −1.61% | −14.21% | −16.12% | −18.19% | 18.75% |
| O=C(O)c1ccccc1OCC1CC1 [Compound 9, 2-(cyclopropylmethoxy)benzoic acid] | −1.29% | −6.99% | −11.40% | −11.75% | −1.59% |
| O=C(O)c1ccccc1OC1CCCC1 [Compound 10, 2-(cyclopentyloxy)benzoic acid] | −6.94% | −25.22% | −29.27% | −29.91% | +16.39% |
| O=C(O)c1ccccc1OCC1CCCCC1 [Compound 11, 2-(cyclohexylmethoxy)benzoic acid] | −4.82% | −6.23% | −19.71% | −19.54% | −1.27% |
